“And” between values parts separate entries of the source, which are not always exact repeats. Equal values may be shown once.
What was measured:
hPPARgamma [1] = molecular target: T1, hPPARgamma (Homo sapiens, UniProt P37231); test: PPAR activation: Gal4-hPPARγ chimera luciferase transactivation in COS-7 cells, Method 2; assay type: cell-based; details: COS-7, 24 h; for EC50: 1% Ultroser
T1 construct: expressed in transfected cells; host or cells: COS-7 (monkey kidney fibroblasts)
T1 sequence (P37231 238-503 limits assumed): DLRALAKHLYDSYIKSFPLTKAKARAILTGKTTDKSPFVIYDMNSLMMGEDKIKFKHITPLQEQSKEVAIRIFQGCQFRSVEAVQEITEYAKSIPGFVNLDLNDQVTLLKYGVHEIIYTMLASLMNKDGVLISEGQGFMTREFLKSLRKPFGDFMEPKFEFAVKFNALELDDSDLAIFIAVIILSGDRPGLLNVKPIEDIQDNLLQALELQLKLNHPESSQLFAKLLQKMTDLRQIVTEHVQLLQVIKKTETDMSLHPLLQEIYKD
Experimental: (§1) The activation of the PPARs was evaluated in vitro on a line of monkey kidney fibroblasts (COS-7) by measuring the transcriptional activity of chimeras constituted of the DNA binding domain of the Gal4 transcription factor of yeast and the ligand binding domain of the various PPARs.
Only the application of the transfection stage is slightly different. The details are presented below.
(§2) The adherent COS-7 cells are transfected with 40 μg of DNA per 225 cm^2 dish, with a pGal4-PPAR/Gal4(RE)_TkpGL3 ratio of 1/10, in the presence of 10% fetal calf serum. The cells are then detached and seeded in the absence of serum in 384-well plates (2×10^4 cells/well) and incubated for 4 hours at 37° C. The compounds are then diluted in a 96-well plate and transferred to the 384-well plate. Activation with the test compounds is carried out for an additional 24 h at 37° C. in the presence of 1% of Ultroser™ lipid-free synthetic serum (Biosepra). These last 2 stages are automated using a Genesis Freedom 200™ station (Tecan). At the end of the experiment, the cells are lysed and the luciferase activity is determined using the Steady-Lite™ HTS (Perkin Elmer) following the supplier's recommendations.

hPPARdelta [2] = molecular target: T2, hPPARdelta (Homo sapiens, UniProt Q03181); test: PPAR activation: Gal4-hPPARδ chimera luciferase transactivation in COS-7 cells, Method 2; assay type: cell-based; details: COS-7, 24 h; for EC50: 1% Ultroser; for Emax: maximum percentage response relative to the reference GW501516, read-out: hPPARdelta % max
T2 construct: expressed in transfected cells; host or cells: COS-7 (monkey kidney fibroblasts)
T2 sequence (Q03181 211-439 limits assumed): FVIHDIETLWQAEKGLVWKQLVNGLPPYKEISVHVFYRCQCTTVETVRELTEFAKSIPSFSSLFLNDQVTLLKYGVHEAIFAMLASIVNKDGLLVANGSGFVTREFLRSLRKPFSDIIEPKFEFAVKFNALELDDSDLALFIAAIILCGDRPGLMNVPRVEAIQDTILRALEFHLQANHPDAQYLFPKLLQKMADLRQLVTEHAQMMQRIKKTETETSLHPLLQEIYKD
Experimental: as §1, with “PPARs. The compounds were tested at doses between 10^−5 and […] on the chimeras Gal4-PPARα, γ or δ, and the corresponding EC50 values were determined.” for “PPARs.”
(§3) The principle, the cells and the plasmids used for example 5 were also employed in this example. Only the application of the transfection stage is slightly different. The details are presented below.
as §2

hPPARalpha [3] = molecular target: T3, hPPARalpha (Homo sapiens, UniProt Q07869); test: PPAR activation: Gal4-hPPARα chimera luciferase transactivation in COS-7 cells, Method 2; assay type: cell-based; details: COS-7, 24 h; for EC50: 1% Ultroser; for Emax: maximum percentage response relative to the reference phenofibric acid, read-out: hPPARalpha % max
T3 construct: expressed in transfected cells; host or cells: COS-7 (monkey kidney fibroblasts)
T3 sequence (Q07869 239-466 limits assumed): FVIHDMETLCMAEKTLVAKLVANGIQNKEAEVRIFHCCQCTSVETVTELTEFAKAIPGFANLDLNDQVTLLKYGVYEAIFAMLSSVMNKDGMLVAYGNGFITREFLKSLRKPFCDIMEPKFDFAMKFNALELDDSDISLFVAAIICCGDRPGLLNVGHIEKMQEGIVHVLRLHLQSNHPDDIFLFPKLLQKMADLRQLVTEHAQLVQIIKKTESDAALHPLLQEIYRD
Experimental: as §1, with “PPARs. The compounds were tested at doses between 10^−5 and […] on the chimeras Gal4-PPARα, γ or δ, and the corresponding EC50 values were determined.” for “PPARs.”
as §3, §2

hPPARalpha [4] = molecular target: T3, hPPARalpha; test: PPAR activation: Gal4-hPPARα chimera luciferase transactivation in COS-7 cells, Method 1; assay type: cell-based; details: COS-7, 24 h; for Emax: maximum percentage response relative to the reference phenofibric acid, read-out: hPPARalpha % max
Experimental: as §1, with “PPARs. The compounds were tested at doses between 10^−5 and […] on the chimeras Gal4-PPARα, γ or δ, and the corresponding EC50 values were determined.” for “PPARs.”
(§4) The COS-7 cells were obtained from the ATCC and were cultivated in DMEM medium supplemented with 10% (v/v) of fetal calf serum, 100 U/ml of penicillin (Gibco, Paisley, UK) and 2 mM of L-glutamine (Gibco, Paisley, UK). The cells were incubated at 37° C. in a humid atmosphere containing 5% CO2.
(§5) The plasmids Gal4(RE)_TkpGL3, pGal4-hPPARα, pGal4-hPPARγ, pGal4-hPPARδ and pGal4-φ are described in the literature (Raspe E et al., 1999). The constructs pGal4-hPPARα, pGal4-hPPARγ and pGal4-hPPARδ were obtained by cloning DNA fragments amplified by PCR corresponding to the DEF domains of the human nuclear receptors PPARα, PPARγ and PPARδ in the pGal4-φ vector.
(§6) The COS-7 cells in suspension were transfected with 150 ng of DNA per well, with a pGal4-PPAR/Gal4(RE)_TkpGL3 ratio of 1/10, in the presence of 10% fetal calf serum. The cells were seeded in 96-well plates (4×10^4 cells/well) and then incubated at 37° C. for 24 hours. Activation with the test compounds is carried out for 24 h at 37° C. in serum-free medium. At the end of the experiment, the cells were lysed and the luciferase activity was determined using the Steady-Lite™ HTS (Perkin Elmer) following the supplier's recommendations.

hPPARdelta [5] = molecular target: T2, hPPARdelta; test: PPAR activation: Gal4-hPPARδ chimera luciferase transactivation in COS-7 cells, Method 1; assay type: cell-based; details: COS-7, 24 h; for Emax: maximum percentage response relative to the reference GW501516, read-out: hPPARdelta % max
Experimental: as §1, with “PPARs. The compounds were tested at doses between 10^−5 and […] on the chimeras Gal4-PPARα, γ or δ, and the corresponding EC50 values were determined.” for “PPARs.”
as §4, §5, §6

hPPARgamma [6] = molecular target: T1, hPPARgamma; test: PPAR activation: Gal4-hPPARγ chimera luciferase transactivation in COS-7 cells, Method 1; assay type: cell-based; details: COS-7, 24 h; for Emax: maximum percentage response relative to the reference rosiglitazone, read-out: hPPARgamma % max
Experimental: as §1, with “PPARs. The compounds were tested at doses between 10^−5 and […] on the chimeras Gal4-PPARα, γ or δ, and the corresponding EC50 values were determined.” for “PPARs.”
as §4, §5, §6

[7] = maximum percentage response relative to the reference rosiglitazone, Method 2, read-out: hPPARgamma % max
[8] = Method 2, read-out: hPPARgamma EC50

SMILES	Emax (hPPARgamma [1]; [7]) [%]	EC50 (hPPARgamma [1]; [8]) [nM]	melting point [°C]	EC50 (hPPARdelta [2])	Emax (hPPARdelta [2]) [%]	EC50 (hPPARalpha [3])	Emax (hPPARalpha [3]) [%]	Emax (hPPARalpha [4]) [%]	EC50 (hPPARdelta [5]) [nM]	Emax (hPPARdelta [5]) [%]	EC50 (hPPARgamma [6]) [nM]	Emax (hPPARgamma [6]) [%]	EC50 (hPPARalpha [4]) [nM]	Emax (hPPARgamma [1]; read-out: hPPARgamma % max, maximum percentage response relative to the reference rosiglitazone, Method 2) [%]	EC50 (hPPARgamma [1]; hPPARgamma EC50, Method 2)
CON=C(CCc1ccc(OC(C)(C)C(=O)O)c(Cl)c1Cl)c1ccc(-c2ccc(C(F)(F)F)cc2)s1 (mixture of isomers) [Compound 50, 2-(2,3-dichloro-4-(3-(methoxyimino)-3-(5-(4-(trifluoromethyl)-phenyl)thien-2-yl)propyl)phenoxy)-2-methylpropanoic acid]	32	270	68 to 69	50 nM	78	260 nM	38								
CC(C)(Oc1ccc(CCC(=O)c2ccc(-c3ccc(C(F)(F)F)cc3)s2)cc1F)C(=O)O [Compound 23, 2-(2-fluoro-4-(3-oxo-3-(5-(4-(trifluoromethyl)phenyl)thien-2-yl)propyl)phenoxy)-2-methylpropanoic acid]			150 to 151					48	16	95	400	49			
O=C(O)COc1ccc(CCC(=O)c2ccc(-c3ccc(C(F)(F)F)cc3)s2)cc1F [Compound 25, 2-(2-fluoro-4-(3-oxo-3-(5-(4-(trifluoromethyl)phenyl)thien-2-yl)-propyl)phenoxy)acetic acid]	27	36500	170 to 171	7450 nM	75	1680 nM	55								
CCC(Oc1ccc(CCC(=O)c2ccc(-c3ccc(C(F)(F)F)cc3)s2)cc1F)C(=O)O (stereo not drawn) [Compound 29, 2-(2-fluoro-4-(3-oxo-3-(5-(4-(trifluoromethyl)phenyl)thien-2-yl)-propyl)phenoxy)butanoic acid]			119 to 120					56	37	88	1270	65	2		
CCC(Oc1ccc(CCC(=O)c2ccc(-c3ccc(C(F)(F)F)cc3)s2)cc1Br)C(=O)O (stereo not drawn) [Compound 32, 2-(2-bromo-4-(3-oxo-3-(5-(4-(trifluoromethyl)phenyl)thien-2-yl)propyl)phenoxy)butanoic acid]			126 to 128					52	36	75	210	67	8		
O=C(O)COc1ccc(CCC(=O)c2ccc(-c3ccc(C(F)(F)F)cc3)s2)cc1Br [Compound 34, 2-(2-bromo-4-(3-oxo-3-(5-(4-(trifluoromethyl)phenyl)thien-2-yl)propyl)phenoxy)acetic acid]			180 to 182					61	114	95		37	60		
CC(C)(Oc1ccc(CCC(=O)c2ccc(-c3ccc(C(F)(F)F)cc3)s2)cc1Br)C(=O)O [Compound 36, 2-(2-bromo-4-(3-oxo-3-(5-(4-(trifluoromethyl)phenyl)thien-2-yl)propyl)phenoxy)-2-methylpropanoic acid]			102 to 104					47	9	85		63	5		
CC(C)(Oc1ccc(CCC(=O)c2ccc(-c3ccc(C(F)(F)F)cc3)o2)c(Cl)c1Cl)C(=O)O [Compound 38, 2-(2,3-dichloro-4-(3-oxo-3-(5-(4-(trifluoromethyl)phenyl)fur-2-yl)-propyl)phenoxy)-2-methylpropanoic acid]			85	14 nM and 9 nM	89	200 nM and 320 nM	44							37	1840 nM and 810 nM
CC(C)(Oc1ccc(CCC(=O)c2ccc(-c3ccc(OC(F)(F)F)cc3)s2)c(Cl)c1Cl)C(=O)O [Compound 44, 2-(2,3-dichloro-4-(3-oxo-3-(5-(4-(trifluoromethoxy)phenyl)thien-2-yl)propyl)phenoxy)-2-methylpropanoic acid]			135 to 136					54	27	109	100	46	16		
CC(C)(Oc1ccc(CCC(=O)c2ccc(-c3ccc(Br)cc3)s2)c(Cl)c1Cl)C(=O)O [Compound 52, 2-(4-(3-(5-(4-bromophenyl)thien-2-yl)-3-oxopropyl)-2,3-dichloro-phenoxy)-2-methylpropanoic acid]	57	1020	155 to 157	50 nM	104	210 nM	53								
CC(C)(Oc1ccc(CCC(OCc2ccccc2)c2cc(-c3ccc(C(F)(F)F)cc3)cs2)c(Cl)c1Cl)C(=O)O (stereo not drawn) [Compound 61, 2-(4-(3-(benzyloxy)-3-(4-(4-(trifluoromethyl)phenyl)thien-2-yl)propyl)-2,3-dichlorophenoxy)-2-methylpropanoic acid]			58 to 59					42	6	101	30	78	591		
CCC(Oc1ccc(CCC(=O)c2ccc(-c3ccc(C(F)(F)F)cc3)s2)cc1)C(=O)O (stereo not drawn) [Compound 65, 2-(4-(3-oxo-3-(5-(4-(trifluoromethyl)phenyl)thien-2-yl)propyl)-phenoxy)butanoic acid]			116 to 117					52	109	79		73	4		
O=C(O)COc1ccc(CCC(=O)c2ccc(-c3ccc(C(F)(F)F)cc3)s2)cc1 [Compound 69, 2-(4-(3-oxo-3-(5-(4-(trifluoromethyl)phenyl)thien-2-yl)propyl)-phenoxy)acetic acid]			182 to 183					61	292	90	3530	15	33		
